Measured values from article PMC5190074, “BET inhibition as a new strategy for the treatment of gastric cancer” (Oncotarget, 2016).

Biological target: T1, BRD4(1), first bromodomain of BRD4 (Homo sapiens, UniProt O60885)
T1 construct: first bromodomain; BRD4_HUMAN O60884-1 fragment 44-168 (crystallography)
Assay: biochemical
Design: thermal shift assay, SAR of isoxazole compounds against BRD4(1)
Conditions: read-out: ΔTm Shift (oC)
Description: The recombinant bromodomains at 2 μM were mixed with 10 μM inhibitors. The assays and data evaluation for melting temperatures were performed using a Real-Time PCR Mx3005p machine (Stratagene) and the protocols previously described. Experiments profiling the final compound (PNZ5) were performed in quadruplicates. Isoxazoles have been explored previously as BET bromodomain inhibitors. We have developed PNZ5, a new isoxazole-based inhibitor originating from the lead compound S1 (Figure 1). PNZ5 was developed as the result of a structure-based lead optimisation program. Dihydroindene S1 was identified as a ligand against BRD4(1) (pIC50 5.9). Investigation of the co-crystal structure of S1 with BRD4(1) [PDB ID 4GPJ] identified a number of positions for potential optimisation: addition of a carbonyl group at C-3 was envisaged to benefit from hydrogen-bonds (H-bonds) to a network of conserved water molecules; replacement of C-2 with a nitrogen would minimise interactions in the narrow ZA channel of BRD4(1) and N-substitution could provide further binding interactions with the protein; and alternative substitution of the hydroxyl at C-1 would provide a handle for further optimisation. […] The three best compounds, S3, S5 and S7, were destined to be separated into their component enantiomers for further evaluation (Supplementary Table 2). […]

Q: How did the ΔTm at 10 µM turn out when Cc1noc(C)c1-c1ccc2c(c1)C(c1ccccc1)N(C)C2=O (racemic) [S3] was run?
A: 10.1 °C
